Experimental data as given in US8952024B2, “Herbicidal pyrimidone derivatives” (E I du Pont de Nemours and Company, priority 2009, dated 2015).

Assays:
Experiment in all cases: Test B pre-/postemergence plant response
Type in all cases: in vivo
[1] = tested on: yellow nutsedge (Cyperus esculentus)
How it was run: (§1)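 Visually scored on a 0 to 100 scale after 13 to 15 days in greenhouse versus controls. Treatments were preemergence on seeded loam/sand soil and postemergence on 1- to 4-leaf plants.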

[2] = tested on: bermudagrass (Cynodon dactylon)
How it was run: as §1

[3] = tested on: downy bromegrass (Bromus tectorum)
How it was run: as §1

[4] = tested on: corn (Zea mays)
How it was run: as §1

[5] = tested on: blackgrass (Alopecurus myosuroides)
How it was run: as §1

[6] = tested on: green foxtail (Setaria viridis)
How it was run: as §1

[7] = tested on: lambsquarters (Chenopodium album)
How it was run: as §1

[8] = tested on: Italian ryegrass (Lolium multiflorum)
How it was run: as §1

[9] = tested on: giant foxtail (Setaria faberii)
How it was run: as §1

[10] = tested on: goosegrass (Eleusine indica)
How it was run: as §1

[11] = tested on: Surinam grass (Brachiaria decumbens)
How it was run: as §1

[12] = tested on: ragweed (common ragweed, Ambrosia elatior)
How it was run: as §1

[13] = tested on: large crabgrass (Digitaria sanguinalis)
How it was run: as §1

[14] = tested on: woolly cupgrass (Eriochloa villosa)
How it was run: as §1

[15] = tested on: johnsongrass (Sorghum halepense)
How it was run: as §1

[16] = tested on: velvetleaf (Abutilon theophrasti)
How it was run: as §1

[17] = tested on: kochia (Kochia scoparia); settings: Postemergence; for Plant response rating, Kochia: scale 0 (no effect) to 100 (complete control)
How it was run: as §1

[18] = 250 g ai/ha, Preemergence, 0 to 100 scale
[19] = Postemergence, 62 g ai/ha, scale 0 (no effect) to 100 (complete control), 13 to 15 days
[20] = Postemergence, 125 g ai/ha, visual rating after 13 to 15 days, scale 0 (no effect) to 100 (complete control)
[21] = Preemergence, 31 g ai/ha, scale 0 to 100 (0 no effect, 100 complete control)
[22] = Preemergence, 125 g ai/ha, 0 to 100 scale
[23] = Postemergence, 31 g ai/ha, scale 0 to 100 (0 no effect, 100 complete control)
[24] = Postemergence, 250 g ai/ha, scale 0 to 100
[25] = Preemergence, 62 g ai/ha, scale 0 to 100, 0 no effect, 100 complete control

O=C1CCCC(O)=C1C(=O)c1cnc(-c2ccccc2)n(-c2ccccc2Br)c1=O [Compound 37]
Plant response rating, Nutsedge, Yellow [1, 18]: 90
Plant response rating, Nutsedge, Yellow [1, 19]: 15
Plant response rating, Nutsedge, Yellow [1, 20]: 25
Plant response rating, Nutsedge, Yellow [1, 21]: 0
Nutsedge, Yellow plant response rating [1, 22]: 20
Plant response rating, Bermudagrass [2, 18]: 100
Plant response rating, Bermudagrass [2, 23]: 85
Plant response rating, Bermudagrass [2, 19]: 90
Plant response rating, Bermudagrass [2, 20]: 98
Bermudagrass plant response rating [2, 24]: 100
Plant response rating, Bermudagrass [2, 21]: 10
Plant response rating, Bermudagrass [2, 25]: 80
Bermudagrass plant response rating [2, 22]: 98
Plant response rating, Bromegrass, Downy [3, 18]: 0
Plant response rating, Bromegrass, Downy [3, 23]: 0
Plant response rating, Bromegrass, Downy [3, 19]: 10
Plant response rating, Bromegrass, Downy [3, 20]: 15
Bromegrass, Downy plant response rating [3, 24]: 45
Plant response rating, Bromegrass, Downy [3, 21]: 0
Plant response rating, Bromegrass, Downy [3, 25]: 0
Bromegrass, Downy plant response rating [3, 22]: 0
Plant response rating, Corn [4, 18]: 0
Plant response rating, Corn [4, 23]: 0
Plant response rating, Corn [4, 19]: 15
Plant response rating, Corn [4, 20]: 60
Corn plant response rating [4, 24]: 75
Plant response rating, Corn [4, 21]: 0
Plant response rating, Corn [4, 25]: 0
Corn plant response rating [4, 22]: 0
Plant response rating, Blackgrass [5, 18]: 10
Plant response rating, Blackgrass [5, 23]: 0
Plant response rating, Blackgrass [5, 19]: 0
Plant response rating, Blackgrass [5, 20]: 5
Blackgrass plant response rating [5, 24]: 30
Plant response rating, Blackgrass [5, 21]: 0
Plant response rating, Blackgrass [5, 25]: 0
Blackgrass plant response rating [5, 22]: 5
Plant response rating, Foxtail, Green [6, 18]: 90
Plant response rating, Foxtail, Green [6, 23]: 60
Plant response rating, Foxtail, Green [6, 19]: 65
Plant response rating, Foxtail, Green [6, 20]: 85
Foxtail, Green plant response rating [6, 24]: 95
Plant response rating, Foxtail, Green [6, 21]: 0
Plant response rating, Foxtail, Green [6, 25]: 0
Foxtail, Green plant response rating [6, 22]: 0
Plant response rating, Lambsquarters [7, 18]: 100
Plant response rating, Lambsquarters [7, 19]: 98
Plant response rating, Lambsquarters [7, 20]: 98
Lambsquarters plant response rating [7, 24]: 100
Plant response rating, Lambsquarters [7, 21]: 95
Plant response rating, Lambsquarters [7, 25]: 98
Lambsquarters plant response rating [7, 22]: 100
Plant response rating, Ryegrass, Italian [8, 18]: 0
Plant response rating, Ryegrass, Italian [8, 19]: 0
Plant response rating, Ryegrass, Italian [8, 20]: 5
Plant response rating, Ryegrass, Italian [8, 21]: 0
Ryegrass, Italian plant response rating [8, 22]: 0
Plant response rating, Foxtail, Giant [9, 18]: 75
Plant response rating, Foxtail, Giant [9, 23]: 70
Plant response rating, Foxtail, Giant [9, 19]: 85
Plant response rating, Foxtail, Giant [9, 20]: 95
Foxtail, Giant plant response rating [9, 24]: 100
Plant response rating, Foxtail, Giant [9, 21]: 0
Plant response rating, Foxtail, Giant [9, 25]: 0
Foxtail, Giant plant response rating [9, 22]: 0
Plant response rating, Goosegrass [10, 18]: 100
Plant response rating, Goosegrass [10, 19]: 85
Plant response rating, Goosegrass [10, 20]: 85
Goosegrass plant response rating [10, 24]: 95
Plant response rating, Goosegrass [10, 21]: 0
Goosegrass plant response rating [10, 22]: 80
Plant response rating, Surinam Grass [11, 18]: 100
Plant response rating, Surinam Grass [11, 19]: 70
Plant response rating, Surinam Grass [11, 20]: 75
Plant response rating, Surinam Grass [11, 21]: 0
Surinam Grass plant response rating [11, 22]: 55
Plant response rating, Ragweed [12, 18]: 98
Plant response rating, Ragweed [12, 19]: 80
Plant response rating, Ragweed [12, 20]: 95
Plant response rating, Ragweed [12, 21]: 0
Ragweed plant response rating [12, 22]: 65
Plant response rating, Crabgrass, Large [13, 18]: 100
Plant response rating, Crabgrass, Large [13, 23]: 70
Plant response rating, Crabgrass, Large [13, 19]: 75
Plant response rating, Crabgrass, Large [13, 20]: 85
Crabgrass, Large plant response rating [13, 24]: 90
Plant response rating, Crabgrass, Large [13, 21]: 0
Plant response rating, Crabgrass, Large [13, 25]: 0
Crabgrass, Large plant response rating [13, 22]: 10
Plant response rating, Cupgrass, Woolly [14, 18]: 70
Plant response rating, Cupgrass, Woolly [14, 23]: 55
Plant response rating, Cupgrass, Woolly [14, 19]: 65
Plant response rating, Cupgrass, Woolly [14, 20]: 75
Cupgrass, Woolly plant response rating [14, 24]: 100
Plant response rating, Cupgrass, Woolly [14, 21]: 0
Plant response rating, Cupgrass, Woolly [14, 25]: 0
Cupgrass, Woolly plant response rating [14, 22]: 10
Plant response rating, Johnsongrass [15, 18]: 90
Plant response rating, Johnsongrass [15, 19]: 40
Plant response rating, Johnsongrass [15, 20]: 60
Johnsongrass plant response rating [15, 24]: 85
Plant response rating, Johnsongrass [15, 21]: 0
Plant response rating, Johnsongrass [15, 25]: 0
Johnsongrass plant response rating [15, 22]: 45
Plant response rating, Velvetleaf [16, 18]: 98
Plant response rating, Velvetleaf [16, 19]: 80
Plant response rating, Velvetleaf [16, 20]: 95
Plant response rating, Velvetleaf [16, 21]: 0
Velvetleaf plant response rating [16, 22]: 20
Plant response rating, Kochia ([17]; 62 g ai/ha, 13 to 15 days): 0
Plant response rating, Kochia ([17]; 125 g ai/ha, visual rating after 13 to 15 days): 15
Kochia plant response rating ([17]; 250 g ai/ha, scale 0 to 100): 65
